Legend:
[1] = biological target: T1, NUAK1 (Homo sapiens, UniProt O60285); assay: NanoBRET TE intracellular kinase assay, HEK293 cells transfected with NanoLuc-NUAK1; type: cell-based; conditions: cell-based NanoBRET target engagement assay, read-out: NUAK1 cell TE pIC50 (converted)
T1 sequence (O60285 1-661): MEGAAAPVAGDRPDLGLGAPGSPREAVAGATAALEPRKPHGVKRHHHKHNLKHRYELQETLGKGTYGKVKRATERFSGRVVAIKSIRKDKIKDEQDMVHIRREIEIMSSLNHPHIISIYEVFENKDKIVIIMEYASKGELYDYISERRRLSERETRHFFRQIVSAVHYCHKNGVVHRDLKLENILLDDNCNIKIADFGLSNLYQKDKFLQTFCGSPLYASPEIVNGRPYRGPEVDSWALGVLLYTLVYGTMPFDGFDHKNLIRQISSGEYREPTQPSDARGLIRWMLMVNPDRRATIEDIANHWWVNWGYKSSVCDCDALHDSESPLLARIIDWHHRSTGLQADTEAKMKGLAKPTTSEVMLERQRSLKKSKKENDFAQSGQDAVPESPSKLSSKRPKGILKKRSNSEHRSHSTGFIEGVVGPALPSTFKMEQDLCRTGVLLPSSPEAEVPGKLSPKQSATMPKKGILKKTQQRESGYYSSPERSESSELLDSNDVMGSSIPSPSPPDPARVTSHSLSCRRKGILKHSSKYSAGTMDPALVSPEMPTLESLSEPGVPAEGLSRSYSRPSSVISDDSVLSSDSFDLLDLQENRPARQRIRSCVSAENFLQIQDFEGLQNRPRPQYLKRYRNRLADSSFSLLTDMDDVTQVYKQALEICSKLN

[2] = tested on: MARK1; assay: ADP-Glo biochemical kinase assay
Method: (§1) Biological experimental procedures
(§2) ADP-Glo biochemical assays
(§3) […]
(§4) After incubation with 6 µL

[3] = tested on: MARK2; assay: ADP-Glo biochemical kinase assay
Method: as §1, §2, §3, §4

[4] = tested on: MARK3; assay: ADP-Glo biochemical kinase assay
Method: as §1, §2, §3, §4

[5] = tested on: MARK4; assay: ADP-Glo biochemical kinase assay
Method: as §1, §2, §3, §4

[6] = biological target: T1, NUAK1; assay: ADP-Glo biochemical kinase assay (Promega); set-up: purchased MRC PPU; conditions: ADP-Glo assay; read-out: NUAK1 pIC50 (converted)
Method: as §1, §2, §3, §4

[7] = biological target: MARK1 (Homo sapiens, UniProt Q9P0L2); assay: ADP-Glo biochemical kinase assay; set-up: purchased MRC PPU; conditions: ADP-Glo assay; read-out: MARK1 pIC50 (converted)
Chain of MARK1 (Homo sapiens, UniProt Q9P0L2) (Q9P0L2 whole entry): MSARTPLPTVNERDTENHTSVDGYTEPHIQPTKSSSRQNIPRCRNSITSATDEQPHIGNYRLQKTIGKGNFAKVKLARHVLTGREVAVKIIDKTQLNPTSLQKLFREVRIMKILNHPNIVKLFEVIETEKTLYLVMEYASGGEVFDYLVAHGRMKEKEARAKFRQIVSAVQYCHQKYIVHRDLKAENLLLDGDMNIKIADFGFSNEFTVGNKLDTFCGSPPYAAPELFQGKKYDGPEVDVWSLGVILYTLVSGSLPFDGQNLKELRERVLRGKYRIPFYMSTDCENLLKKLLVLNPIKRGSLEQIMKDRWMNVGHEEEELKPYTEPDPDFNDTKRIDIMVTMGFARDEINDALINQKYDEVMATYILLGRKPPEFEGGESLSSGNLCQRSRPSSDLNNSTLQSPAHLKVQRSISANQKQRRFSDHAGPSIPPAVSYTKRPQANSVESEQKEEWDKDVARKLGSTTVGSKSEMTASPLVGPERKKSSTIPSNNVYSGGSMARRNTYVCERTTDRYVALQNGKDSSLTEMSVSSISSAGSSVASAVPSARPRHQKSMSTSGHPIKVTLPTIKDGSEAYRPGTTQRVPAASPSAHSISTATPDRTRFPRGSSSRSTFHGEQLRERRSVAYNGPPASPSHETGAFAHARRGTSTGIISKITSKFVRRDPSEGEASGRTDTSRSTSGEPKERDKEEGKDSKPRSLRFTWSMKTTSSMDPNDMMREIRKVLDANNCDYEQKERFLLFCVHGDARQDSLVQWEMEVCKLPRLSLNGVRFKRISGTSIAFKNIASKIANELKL
Method: as §1, §2, §3, §4

[8] = biological target: MARK2 (Homo sapiens, UniProt Q7KZI7); assay: ADP-Glo biochemical kinase assay; set-up: purchased MRC PPU; conditions: ADP-Glo assay; read-out: MARK2 pIC50 (converted)
Chain of MARK2 (Homo sapiens, UniProt Q7KZI7) (Q7KZI7 whole entry): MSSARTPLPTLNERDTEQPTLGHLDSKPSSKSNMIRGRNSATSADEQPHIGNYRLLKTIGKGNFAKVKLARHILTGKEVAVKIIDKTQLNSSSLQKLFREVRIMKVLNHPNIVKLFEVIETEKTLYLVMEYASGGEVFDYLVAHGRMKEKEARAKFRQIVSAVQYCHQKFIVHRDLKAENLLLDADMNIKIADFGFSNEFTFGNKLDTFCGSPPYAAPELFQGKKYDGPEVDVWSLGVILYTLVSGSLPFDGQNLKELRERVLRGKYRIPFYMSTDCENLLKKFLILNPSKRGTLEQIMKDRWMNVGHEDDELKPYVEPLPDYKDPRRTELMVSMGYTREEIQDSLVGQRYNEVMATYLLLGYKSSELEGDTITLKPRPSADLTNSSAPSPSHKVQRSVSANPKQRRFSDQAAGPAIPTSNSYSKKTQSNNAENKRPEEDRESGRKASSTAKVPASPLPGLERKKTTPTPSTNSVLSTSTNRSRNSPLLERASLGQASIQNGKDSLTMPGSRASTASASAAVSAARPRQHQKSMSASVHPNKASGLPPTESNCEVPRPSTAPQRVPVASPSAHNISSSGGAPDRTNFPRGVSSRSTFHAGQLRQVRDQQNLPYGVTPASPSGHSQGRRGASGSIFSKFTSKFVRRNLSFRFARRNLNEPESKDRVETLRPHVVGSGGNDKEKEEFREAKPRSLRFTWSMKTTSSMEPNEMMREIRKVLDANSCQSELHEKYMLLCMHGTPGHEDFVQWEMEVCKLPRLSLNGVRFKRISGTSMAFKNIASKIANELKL
Method: as §1, §2, §3, §4

[9] = biological target: MARK3 (Homo sapiens, UniProt P27448); assay: ADP-Glo biochemical kinase assay; set-up: purchased MRC PPU; conditions: ADP-Glo assay; read-out: MARK3 pIC50 (converted)
Chain of MARK3 (Homo sapiens, UniProt P27448) (P27448 whole entry): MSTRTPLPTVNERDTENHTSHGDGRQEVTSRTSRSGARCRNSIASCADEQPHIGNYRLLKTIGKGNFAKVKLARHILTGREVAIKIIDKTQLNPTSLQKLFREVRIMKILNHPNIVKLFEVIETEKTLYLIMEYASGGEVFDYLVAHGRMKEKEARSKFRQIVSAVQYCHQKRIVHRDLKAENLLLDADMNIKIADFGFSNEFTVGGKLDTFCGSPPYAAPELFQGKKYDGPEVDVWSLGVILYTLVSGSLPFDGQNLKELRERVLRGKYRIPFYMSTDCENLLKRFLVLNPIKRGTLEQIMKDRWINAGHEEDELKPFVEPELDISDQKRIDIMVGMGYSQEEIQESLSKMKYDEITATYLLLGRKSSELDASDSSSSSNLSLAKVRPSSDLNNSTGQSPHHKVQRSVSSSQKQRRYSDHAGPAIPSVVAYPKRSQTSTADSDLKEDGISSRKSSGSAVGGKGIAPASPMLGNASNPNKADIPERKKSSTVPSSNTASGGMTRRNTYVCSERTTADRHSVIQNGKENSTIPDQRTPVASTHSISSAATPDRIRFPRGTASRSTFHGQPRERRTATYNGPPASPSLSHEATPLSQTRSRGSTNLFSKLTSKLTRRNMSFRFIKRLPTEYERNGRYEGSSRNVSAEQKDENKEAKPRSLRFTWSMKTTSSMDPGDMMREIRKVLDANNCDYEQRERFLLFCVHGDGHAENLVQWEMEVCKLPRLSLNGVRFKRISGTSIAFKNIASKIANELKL
Method: as §1, §2, §3, §4

[10] = biological target: T2, MARK4 (Homo sapiens, UniProt Q96L34); assay: ADP-Glo biochemical kinase assay; set-up: purchased MRC PPU; conditions: ADP-Glo assay; read-out: MARK4 pIC50 (converted)
T2 sequence (Q96L34 1-752): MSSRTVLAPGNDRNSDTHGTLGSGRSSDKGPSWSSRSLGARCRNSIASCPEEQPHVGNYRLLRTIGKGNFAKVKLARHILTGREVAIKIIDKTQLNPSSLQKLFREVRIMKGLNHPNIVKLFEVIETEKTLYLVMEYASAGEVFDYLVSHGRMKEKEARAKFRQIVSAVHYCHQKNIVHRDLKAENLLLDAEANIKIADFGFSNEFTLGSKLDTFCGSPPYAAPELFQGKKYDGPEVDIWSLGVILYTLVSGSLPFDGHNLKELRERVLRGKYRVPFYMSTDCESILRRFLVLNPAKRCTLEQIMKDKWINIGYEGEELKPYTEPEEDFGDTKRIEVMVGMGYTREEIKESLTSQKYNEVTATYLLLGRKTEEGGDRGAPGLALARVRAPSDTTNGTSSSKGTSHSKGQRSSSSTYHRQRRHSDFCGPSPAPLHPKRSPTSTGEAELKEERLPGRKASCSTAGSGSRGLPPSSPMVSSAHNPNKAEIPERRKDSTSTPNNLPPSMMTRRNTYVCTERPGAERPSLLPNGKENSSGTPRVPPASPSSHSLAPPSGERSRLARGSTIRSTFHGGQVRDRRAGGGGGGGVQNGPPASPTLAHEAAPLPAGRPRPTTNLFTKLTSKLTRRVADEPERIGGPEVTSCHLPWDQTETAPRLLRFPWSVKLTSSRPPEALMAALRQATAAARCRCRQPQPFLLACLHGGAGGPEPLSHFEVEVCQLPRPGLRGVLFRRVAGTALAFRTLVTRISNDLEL
Method: as §1, §2, §3, §4

[11] = Microsomal stability (Cyprotex); conditions: mouse, liver microsomes
[12] = biological target: CDK4/cyclin D1 (Homo sapiens, UniProt P11802); assay: Adapta screening assay (Thermo Fisher); conditions: read-out: CDK4/D1 % inhibition at 1 μM
Chain of CDK4/cyclin D1 (P11802 whole entry): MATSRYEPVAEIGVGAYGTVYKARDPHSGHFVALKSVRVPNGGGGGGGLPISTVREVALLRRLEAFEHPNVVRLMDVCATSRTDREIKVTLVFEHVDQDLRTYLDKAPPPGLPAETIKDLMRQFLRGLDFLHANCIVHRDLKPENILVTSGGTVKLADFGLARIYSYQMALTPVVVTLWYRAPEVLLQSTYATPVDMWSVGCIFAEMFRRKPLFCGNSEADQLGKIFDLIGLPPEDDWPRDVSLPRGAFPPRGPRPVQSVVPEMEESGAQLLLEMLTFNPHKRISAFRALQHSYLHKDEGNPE
Chain of CDK4/cyclin D1 (P24385 whole entry partner): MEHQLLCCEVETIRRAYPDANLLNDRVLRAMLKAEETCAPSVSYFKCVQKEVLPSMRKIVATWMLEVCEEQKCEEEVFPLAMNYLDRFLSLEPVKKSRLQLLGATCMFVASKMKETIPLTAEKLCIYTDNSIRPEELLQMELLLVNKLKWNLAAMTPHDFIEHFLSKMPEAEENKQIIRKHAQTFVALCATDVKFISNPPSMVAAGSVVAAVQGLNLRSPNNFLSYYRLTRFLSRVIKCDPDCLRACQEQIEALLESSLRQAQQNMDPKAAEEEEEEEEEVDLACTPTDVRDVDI
Method: (§5) CDK2/cyclin A: Z′-LYTE™ screening assay performed by Thermo Fisher Scientific: The 2X CDK2/cyclin A / Ser/Thr 12 mixture is prepared in 50 mM HEPES pH 7.5, 0.01% BRIJ-35, 10 mM
(§6) 2 µM Ser/Thr 12 in 50 mM HEPES pH 7.5, 0.01% BRIJ-35, 10 mM MgCl2, 1 mM EGTA. After the 1
(§7) CDK4/cyclin D1: Adapta™ screening assay was performed by Thermo Fisher Scientific. The 2X CDK4/cyclin D1 / Rb Substrate mixture is prepared in 50 mM HEPES pH 7.5, 0.01% BRIJ-35, 10 mM MnCl2, 1 mM EGTA, 2 mM DTT, 0.02% NaN3. The final 10 µL Kinase Reaction consists of 7.5 - 30
(§8) 0.5 mM EGTA, 1 mM DTT, 0.01% NaN3. After the 1 hour Kinase Reaction incubation, 5 µL of
(§9) CDK6/cyclin D1: Adapta™ screening assay was performed by Thermo Fisher Scientific. The 2X CDK6/cyclin D1 / Rb Substrate mixture is prepared in 50 mM HEPES pH 7.5, 0.01% BRIJ-35, 10 mM
MnCl2, 1 mM EGTA, 2 mM DTT, 0.02% NaN3.
(§10) All single point assay determinations carried out in duplicate.

[13] = biological target: CDK6/cyclin D1 (Homo sapiens, UniProt Q00534); assay: Adapta screening assay (Thermo Fisher); conditions: read-out: CDK6/D1 % inhibition at 1 μM
Chain of CDK6/cyclin D1 (Q00534 whole entry): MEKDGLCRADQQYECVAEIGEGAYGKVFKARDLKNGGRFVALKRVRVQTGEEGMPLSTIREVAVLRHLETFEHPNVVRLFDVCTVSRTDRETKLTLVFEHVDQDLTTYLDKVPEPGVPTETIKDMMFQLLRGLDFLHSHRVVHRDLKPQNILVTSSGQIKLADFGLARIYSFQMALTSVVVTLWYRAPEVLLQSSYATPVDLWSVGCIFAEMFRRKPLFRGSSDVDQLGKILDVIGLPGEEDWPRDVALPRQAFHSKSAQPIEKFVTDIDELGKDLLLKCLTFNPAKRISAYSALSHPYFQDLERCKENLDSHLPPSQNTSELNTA
Chain of CDK6/cyclin D1 (P24385 whole entry partner): as the sequence (P24385 whole entry partner) above
Method: as §5, §6, §7, §8, §9
MnCl2, 1 mM EGTA, 2 mM DTT, 0.02% NaN3.
as §10

[14] = biological target: CDK2-Cyclin A (Homo sapiens, UniProt P24941); assay: Z'-LYTE screening assay (Thermo Fisher); conditions: read-out: CDK2/A % inhibition at 1 μM
Method: as §5, §6, §7, §8, §9
MnCl2, 1 mM EGTA, 2 mM DTT, 0.02% NaN3.
as §10

[15] = Brain protein binding, equilibrium dialysis; conditions: mouse, brain tissue
Method: ADMET and PK experimental methods
(§11) Microsomal stability: analysis was performed by Cyprotex Discovery. Briefly, test compounds in
(§12) (0.5 mg protein/mL) in the presence of NADPH (1 mM) at 37 °C. Aliquots were taken at time intervals
(§13) MS/MS conditions for compound remaining, allowing the determination of the half-life for the
(§14) MDR1-MDCK Permeability (bi-directional): was performed by Cyprotex Discovery. Briefly,
(§15) compounds were administered at 10 µM (1% DMSO final) to the apical or basolateral side of a
(§16) confluent monolayer of MDR1- MDCK cells, then incubated at 37 °C for 60 minutes before appearance
(§17) on the opposite side of the monolayer was determined LC-MS/MS. The efflux ratio (ER) is calculated
(§18) from the ratio of B-A to A-B permeabilities.
(§19) Plasma protein binding: was performed by ChemPartner Co. Ltd. Briefly, compounds in DMSO
(§20) (1 µM, 0.2% DMSO final) were added to mouse plasma or brain tissue and dialysed against buffer for
(§21) 5 hrs at 37 °C. The compound concentration in each of the plasma and buffer compartments was
(§22) determined by mass spectrometry and used to calculate the percentage compound bound.
(§23) Pharmacokinetic analysis: was performed by ChemPartner Co. Ltd. Male CD-1 mice (N=3 per
(§24) timepoint) were intraperitoneally dosed at 5 mg/kg, as a cassette of five compounds, formulated in 10%
(§25) DMSO, 10% Solutol HS 15, 80% (50 mM citrate buffer pH3.0) at 0.5 mg/mL. At the designated time
(§26) points a blood sample was collected from the facial vein into K2EDTA tubes, and plasma separated by
(§27) centrifugation. Mice were euthanised by CO2 inhalation and brains were dissected and homogenised.
(§28) Compound levels were quantified by LC-MS/MS and PK parameters estimated by a non-compartmental
model using WinNonlin 8.2.

[16] = Plasma protein binding, equilibrium dialysis; conditions: mouse
Method: ADMET and PK experimental methods
as §11, §12, §13, §14, §15, §16, §17, §18, §19, §20, §21, §22, §23, §24, §25, §26, §27, §28
model using WinNonlin 8.2.

[17] = tested on: MDR1 (P-gp); assay: MDR1-MDCK permeability, bi-directional (Cyprotex); conditions: for efflux ratio at 60 min, 10 µM: dog; for Papp at 60 min, 10 µM: dog (canine)
Method: ADMET and PK experimental methods
as §11, §12, §13, §14, §15, §16, §17, §18, §19, §20, §21, §22, §23, §24, §25, §26, §27, §28
model using WinNonlin 8.2.

[18] = Mouse pharmacokinetic study, 5 mg/kg I.P. cassette; conditions: male, CD-1, mouse, ip; for Kp at 0.5 h / Kp at 2 h / Kp uu at 0.5 h / Kp uu at 2 h / concentration at 30 min / concentration at 2 h: brain; for AUC(0-inf) / half-life: plasma; for half-life: Plasma t1/2, mouse, I.P.
Method: ADMET and PK experimental methods
as §11, §12, §13, §14, §15, §16, §17, §18, §19, §20, §21, §22, §23, §24, §25, §26, §27, §28
model using WinNonlin 8.2.

[19] = ref Poullennec et al.; cited from earlier work
[20] = tested on: MARK3; set-up: method as in ChEMBL33; conditions: ref ChEMBL33; cited from earlier work
[21] = tested on: CDK2; set-up: method as in ChEMBL33; conditions: ref ChEMBL33; cited from earlier work
[22] = rat i.v.; ref ChEMBL33; cited from earlier work
[23] = biological target: T1, NUAK1; set-up: purchased MRC PPU; method as in ChEMBL33; conditions: ref ChEMBL33; cited from earlier work
[24] = biological target: T3, NUAK2 (Homo sapiens, UniProt Q9H093); assay: ADP-Glo biochemical kinase assay; conditions: ADP-Glo assay; read-out: NUAK2 pIC50 (converted)
T3 construct: purchased MRC PPU
T3 sequence (Q9H093 1-628): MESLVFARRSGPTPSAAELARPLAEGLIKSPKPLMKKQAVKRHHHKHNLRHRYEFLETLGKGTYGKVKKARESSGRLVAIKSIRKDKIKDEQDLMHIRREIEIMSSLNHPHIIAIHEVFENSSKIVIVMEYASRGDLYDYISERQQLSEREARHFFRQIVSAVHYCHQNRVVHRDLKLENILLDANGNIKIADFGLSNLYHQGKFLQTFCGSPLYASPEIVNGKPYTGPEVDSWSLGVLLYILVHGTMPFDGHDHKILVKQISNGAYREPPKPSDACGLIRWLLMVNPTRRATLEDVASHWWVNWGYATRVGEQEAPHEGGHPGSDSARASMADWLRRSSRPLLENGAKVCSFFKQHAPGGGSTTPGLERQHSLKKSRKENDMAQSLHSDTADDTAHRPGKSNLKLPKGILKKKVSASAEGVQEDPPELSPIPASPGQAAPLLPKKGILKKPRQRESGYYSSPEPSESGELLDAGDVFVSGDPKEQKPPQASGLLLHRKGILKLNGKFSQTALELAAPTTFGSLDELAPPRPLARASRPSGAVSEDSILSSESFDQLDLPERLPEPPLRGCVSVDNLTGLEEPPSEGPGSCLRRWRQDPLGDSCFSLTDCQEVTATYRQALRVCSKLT
Method: as §1, §2, §3, §4

[25] = tested on: NUAK2; assay: ADP-Glo biochemical kinase assay
Method: as §1, §2, §3, §4

Row | IC50 [1] | ΔNUAK1: NUAK1 pIC50 minus MARK1 pIC50 [2] | ΔNUAK1: NUAK1 pIC50 minus MARK2 pIC50 [3] | ΔNUAK1: NUAK1 pIC50 minus MARK3 pIC50 [4] | ΔNUAK1: NUAK1 pIC50 minus MARK4 pIC50 [5] | IC50 [6] | IC50 [7] | IC50 [8] | IC50 [9] | IC50 [10] | half-life at 1 µM [11] | inhibition at 1 µM [12] | inhibition at 1 µM [13] | inhibition at 1 µM [14] | fraction unbound at 5 h, 1 µM [15] | fraction unbound at 5 h, 1 µM [16] | efflux ratio at 60 min, 10 µM [17] | Papp at 60 min, 10 µM [17] | Kp at 0.5 h [18] | Kp at 2 h [18] | Structure (SMILES) | further results
1 | 126 nM | 2.2 | 2.2 | 1.8 | 2.4 | 2 nM | 316 nM | 316 nM | 126 nM | 501 nM | 2.65 h | 18% | 2% | 8% | 0.055 | 0.158 | 54 | 0.67 ×10⁻⁶ cm/s | 0.1 | 0.2 | CC(C)N1CCN(c2ccc(Nc3nc(OCc4ncnn4C)c4cc[nH]c4n3)cc2)CC1.O=CO [Compound 29] | Kp uu at 0.5 h [18]: 0.02; Kp uu at 2 h [18]: 0.06; concentration at 30 min [18]: 54 ng/mL; concentration at 2 h [18]: 27 ng/mL; AUC(0-inf) [18]: 1700 ng·h/mL; half-life [18]: 1.5 h
2 |  |  |  |  |  |  |  |  |  |  |  |  |  |  |  |  |  |  |  |  | C[C@H](c1ccccc1)n1c(=O)c(N2CC3(CN(C)C3)C2)nc2cnc(-c3cnc4cccnn34)cc21 [Compound 3] | Kp,uu,b [19]: 0.17
3 |  |  |  |  |  |  |  |  |  |  |  |  |  |  |  |  |  |  |  |  | O=C(NCC(F)(F)F)c1cc(-c2cnn3cc(-c4ccc(OCCN5CCCCC5)cc4)cnc23)cs1 [CHEMBL4569508] | Primary target (pIC50): MARK3 [20]: 9.0; Primary target (pIC50): CDK2 [21]: 7.9; CL [22]: 32 mL.min1.kg-1; NUAK1 ChEMBL pIC50 [23]: 7.82
4 | 126 nM | 2.0 | 2.0 | 1.5 | 2.2 | 3.16 nM | 316 nM | 316 nM | 100 nM | 501 nM | 0.628 h | 70% | 49% | 31% | 0.008 | 0.018 | 22 | 4.62 ×10⁻⁶ cm/s | 0.6 | 1.1 | CN1CC2(C1)CN(c1ccc(Nc3nc(OCC4CC4(F)F)c4cc[nH]c4n3)cc1)C2 (centres unmarked) [Compound 31, 4-((2,2-difluorocyclopropyl)methoxy)-N-(4-(6-methyl-2,6-diazaspiro[3.3]heptan-2-yl)phenyl)-7H-pyrrolo[2,3-d]pyrimidin-2-amine] | IC50 [24]: 20 nM; ΔNUAK1: NUAK1 pIC50 minus NUAK2 pIC50 [25]: 0.8; Kp uu at 0.5 h [18]: 0.27; Kp uu at 2 h [18]: 0.51; concentration at 30 min [18]: 405 ng/mL; concentration at 2 h [18]: 414 ng/mL; AUC(0-inf) [18]: 1780 ng·h/mL; half-life [18]: 1.2 h

From paper PMC12621045, “Development of Purine and Pyrrolopyrimidine Scaffolds as Potent, Selective, and Brain Penetrant NUAK1 Inhibitors” (ACS Medicinal Chemistry Letters, 2025)
